Results as given in US20250352520A1, “USE OF DEXPRAMIPEXOLE FOR THE TREATMENT OF EOSINOPHILIC COPD” (Areteia Therapeutics, Inc., priority 2024, published 2025).
Where two headings read alike, the source gives them in different places.

Experiments:
[1] = for SGRQ-C Questionnaire - Total Score, CFB (Change from baseline), Max / SGRQ-C Questionnaire - Total Score, CFB (Change from baseline), Mean ± SD / SGRQ-C Questionnaire - Total Score, CFB (Change from baseline), Median / SGRQ-C Questionnaire - Total Score, CFB (Change from baseline), Min / SGRQ-C Questionnaire - Total Score, CFB (Change from baseline), Q1 / SGRQ-C Questionnaire - Total Score, CFB (Change from baseline), Q3 / SGRQ-C Questionnaire - Total Score, Observed, Max / SGRQ-C Questionnaire - Total Score, Observed, Mean ± SD / SGRQ-C Questionnaire - Total Score, Observed, Median / SGRQ-C Questionnaire - Total Score, Observed, Min / SGRQ-C Questionnaire - Total Score, Observed, Q1 / SGRQ-C Questionnaire - Total Score, Observed, Q3: Week 16, 150 mg BID
Description: The SGRQ-C questionnaire was developed from the SGRQ which was designed to measure health impairment in patients with asthma and COPD. The SGRQ-C is a shorter version (40 items compared with 50 items in SGRQ) derived from the original version following detailed analysis of data from large studies in COPD. The FDA has stated that the SGRQ-C is acceptable for use as either a co-primary endpoint or as a secondary endpoint providing supporting evidence of efficacy in a clinical trial. In this study, assessment of SGRQ-C was a secondary endpoint.
The SGRQ-C total score is made up of three components: (1) symptoms frequency and severity of symptoms; (2) activity effect of disease on common daily physical activities; and (3) impacts psychosocial effects of the disease.
The threshold for a clinically significant difference between groups of participants and for changes within groups of participants was four units.

[2] = across the dose groups at various time-points
[3] = for COPD Assessment - Total Score, CFB (Change from baseline), Max / COPD Assessment - Total Score, CFB (Change from baseline), Mean ± SD / COPD Assessment - Total Score, CFB (Change from baseline), Median / COPD Assessment - Total Score, CFB (Change from baseline), Min / COPD Assessment - Total Score, CFB (Change from baseline), Q1 / COPD Assessment - Total Score, CFB (Change from baseline), Q3 / COPD Assessment - Total Score, Observed, Max / COPD Assessment - Total Score, Observed, Mean ± SD / COPD Assessment - Total Score, Observed, Median / COPD Assessment - Total Score, Observed, Min / COPD Assessment - Total Score, Observed, Q1 / COPD Assessment - Total Score, Observed, Q3: Week 16, 150 mg BID
Description: The CAT is a participant-completed instrument that can quantify the impact of COPD on the participant's health. It complements existing approaches to assessing COPD, such as FEV1 measurement.
The CAT has a scoring range of 0-40 (0 to 5 on 8 questions) with higher numbers indicating more severe symptoms.

[4] = <50% AEC reduction at Week 16 (N = 4)
[5] = >=50% AEC reduction at Week 16 (N = 3)

## CCCN[C@@H]1CCc2nc(N)sc2C1 [Dexpramipexole, (6R)-2-amino-4,5,6,7-tetrahydro-6-(propylamino)benzothiazole]
[1]; AECR≥0.5 patients, 16 weeks
  SGRQ-C total score, decrease compared to baseline: 12.08 points
[1]; [4]
  SGRQ-C Questionnaire - Total Score, CFB (Change from baseline), Max: 3.9
  SGRQ-C Questionnaire - Total Score, CFB (Change from baseline), Mean ± SD: −4.15 ± 6.817
  SGRQ-C Questionnaire - Total Score, CFB (Change from baseline), Median: −5.18
  SGRQ-C Questionnaire - Total Score, CFB (Change from baseline), Min: −10.1
  SGRQ-C Questionnaire - Total Score, CFB (Change from baseline), Q1: −9.8
  SGRQ-C Questionnaire - Total Score, CFB (Change from baseline), Q3: 1.5
  SGRQ-C Questionnaire - Total Score, Observed, Max: 63.2
  SGRQ-C Questionnaire - Total Score, Observed, Mean ± SD: 45.45 ± 19.893
  SGRQ-C Questionnaire - Total Score, Observed, Median: 50.64
  SGRQ-C Questionnaire - Total Score, Observed, Min: 17.3
  SGRQ-C Questionnaire - Total Score, Observed, Q1: 32.1
  SGRQ-C Questionnaire - Total Score, Observed, Q3: 58.8
[1]; [5]
  SGRQ-C Questionnaire - Total Score, CFB (Change from baseline), Max: −6.2
  SGRQ-C Questionnaire - Total Score, CFB (Change from baseline), Mean ± SD: −12.08 ± 5.544
  SGRQ-C Questionnaire - Total Score, CFB (Change from baseline), Median: −12.76
  SGRQ-C Questionnaire - Total Score, CFB (Change from baseline), Min: −17.2
  SGRQ-C Questionnaire - Total Score, CFB (Change from baseline), Q1: −17.2
  SGRQ-C Questionnaire - Total Score, CFB (Change from baseline), Q3: −6.2
  SGRQ-C Questionnaire - Total Score, Observed, Max: 45.0
  SGRQ-C Questionnaire - Total Score, Observed, Mean ± SD: 40.39 ± 7.250
  SGRQ-C Questionnaire - Total Score, Observed, Median: 44.09
  SGRQ-C Questionnaire - Total Score, Observed, Min: 32.0
  SGRQ-C Questionnaire - Total Score, Observed, Q1: 32.0
  SGRQ-C Questionnaire - Total Score, Observed, Q3: 45.0
[2]
  placebo-corrected change from baseline in pre-BD FEV1: clinically meaningful
[3]; AECR≥0.5 patients, week 16
  CAT total score, decrease compared to baseline: 8.7 points
[3]; [4]
  COPD Assessment - Total Score, CFB (Change from baseline), Max: 0
  COPD Assessment - Total Score, CFB (Change from baseline), Mean ± SD: −1.8 ± 1.50
  COPD Assessment - Total Score, CFB (Change from baseline), Median: −2.0
  COPD Assessment - Total Score, CFB (Change from baseline), Min: −3
  COPD Assessment - Total Score, CFB (Change from baseline), Q1: −3
  COPD Assessment - Total Score, CFB (Change from baseline), Q3: −1
  COPD Assessment - Total Score, Observed, Max: 24
  COPD Assessment - Total Score, Observed, Mean ± SD: 17.5 ± 8.27
  COPD Assessment - Total Score, Observed, Median: 20.0
  COPD Assessment - Total Score, Observed, Min: 6
  COPD Assessment - Total Score, Observed, Q1: 12
  COPD Assessment - Total Score, Observed, Q3: 24
[3]; [5]
  COPD Assessment - Total Score, CFB (Change from baseline), Max: −8
  COPD Assessment - Total Score, CFB (Change from baseline), Mean ± SD: −8.7 ± 1.15
  COPD Assessment - Total Score, CFB (Change from baseline), Median: −8.0
  COPD Assessment - Total Score, CFB (Change from baseline), Min: −10
  COPD Assessment - Total Score, CFB (Change from baseline), Q1: −10
  COPD Assessment - Total Score, CFB (Change from baseline), Q3: −8
  COPD Assessment - Total Score, Observed, Max: 23
  COPD Assessment - Total Score, Observed, Mean ± SD: 16.3 ± 5.86
  COPD Assessment - Total Score, Observed, Median: 14.0
  COPD Assessment - Total Score, Observed, Min: 12
  COPD Assessment - Total Score, Observed, Q1: 12
  COPD Assessment - Total Score, Observed, Q3: 23
